Assays:
Assay type in all cases: cell-based, mouse
[1] = test system: ARG1 mRNA expression in RAW 264.7 cells; test: qRT-PCR of ARG1 mRNA in IL-4/IL-13-stimulated RAW 264.7 cells; conditions: Mus musculus, RAW264.7, IL-4/IL-13 (20 ng/mL) plus compound 10 μM, 12 h, stimulated control = 100%, mean ± SD, read-out: ARG1 mRNA Relative Expression (%)
Source text: (§1) We first investigated the impacts of a series of commercially available natural pseudolaric acids or their O-pyranosides (Figure 1) on the pro-tumoral phenotype of TAMs, which play a critical role in anti-tumor immune response modulation. […] In contrast, M1-biased macrophages combat tumor growth and bacterial infections by expressing inducible nitric oxide synthase 2 (NOS2), which catalyzes the production of nitric oxide (NO). Recognizing the pivotal roles of ARG1 and NOS2, we utilized these molecules as key biomarkers and effectors for assessing macrophage immune function. In our experiments, the mouse monocyte–macrophage leukemia cell line RAW 264.7 was induced with IL-4/IL-13 to acquire an M2-like pro-tumoral phenotype. Concurrently, the cells were treated with the pseudolaric acid-related natural products 1–7 at a concentration of 10 μM for 12 h. Additionally, PLX3397 was used as a positive control at a concentration of 0.5 μM. […] As shown in Table 1 and Figure S1A, pseudolaric acid B (1), its deacetoxyl analogue 2 (pseudolaric acid C), and β-D-glucoside 7 substantially attenuated the upregulation of ARG1 mRNA expression induced by IL-4/IL-13, with statistically significant effects. In contrast, bis-carboxylic acids analogs 4 (pseudolaric acid C2) and 6 (demethoxydeacetoxypseudolaric acid B) have no significant impact on ARG1 mRNA expression.
(§2) With these carboxylic acid-modified derivatives in hand, we investigated their impact at 10 μM on ARG1 and NOS2 mRNA expression in RAW 264.7 cells pre-stimulated with IL-4/IL-13 to evaluate the effects on the pro-tumor phenotype of macrophages. […] Further removal of one hydroxyl from the glycerol moiety 15 further enhanced the inhibitory effect on ARG1 expression but had no significant impact on NOS2 expression.
(§3) Total RNA was isolated from cells using the EZ-press RNA Purification Kit (EZBioscience, Suzhou, China) and subjected to reverse transcription with the 5×HiScript II qRT SuperMix II (Vazyme, Nanjing, China). PCR was performed with the 2×ChamQ Universal SYBR qPCR Master Mix (Vazyme, Nanjing, China). All primers for qRT-PCR are described in Table S1. The 2^−∆∆Ct method was utilized to calculate the fold change in gene expression, with the expression levels in the stimulated group set as the baseline for normalization.

[2] = test system: NOS2 mRNA expression in RAW 264.7 cells; test: qRT-PCR of NOS2 mRNA in IL-4/IL-13-stimulated RAW 264.7 cells; conditions: Mus musculus, RAW264.7, IL-4/IL-13 (20 ng/mL) plus compound 10 μM, 12 h, stimulated control = 100%, mean ± SD, read-out: NOS2 mRNA Relative Expression (%)
Source text: as §1, §2, §3

Raw264.7 cells = test: Cell viability (CCK-8) of RAW264.7 cells; conditions: IL-4/IL-13 plus compound 10 μM, 12 h
Description: Cells were seeded in 96-well tissue culture plates. On the next day, cells were exposed to various concentrations of compounds and further cultured for the indicated period. Finally, cell proliferation was determined by using the Cell Counting Kit (CCK-8) (Dojindo, Kumamoto, Japan) assay.
Figure S2. Effects of natural pseudolaric acids 1-4, 6 and their O-pyranosides 5, 7 as well as the derivatives 8-18 o f 1 on Raw264.7 cell viability. Raw264.7 cells were treated with IL-4/IL-13 alone or combined with indicated compounds (10 μM) for 12 h. After incubation, the cell viability was determined using a cell counting kit (CCK-8, Dojindo, Japan) assay.
(1 picture or pasted object on this page, not shown here)

[3] = test system: ARG1, NOS2, CD206 and MHC II mRNA expression in RAW 264.7 cells; test: qRT-PCR of ARG1, NOS2, CD206, MHC II in RAW264.7 cells at multiple concentrations; conditions: RAW 264.7 cells stimulated with IL-4/IL-13, multiple concentrations, 12 h
Description: We also extended the test to primary murine macrophages derived from bone marrow (BMDMs), which were cultured in vitro with recombinant mouse M-CSF for 6 days. The BMDMs were then stimulated with IL-4/IL-13, leading to their transformation into M2-like pro-tumoral macrophages. This transformation was characterized by an increase in both ARG1 and CD206 expression and a decrease in both NOS2 and MHC II expression. […] Subsequently, we assessed the capacity of compound 12 to inhibit the M2-like polarization of macrophages using CSF-1-differentiated mouse BMDMs. These cells were treated with IL-4 and IL-13 for 48 h, and the expression levels of CD206, an M2-type marker, and CD86, an M1-type marker, were analyzed via flow cytometry. […]
Figure 2 Compound 12 inhibits the M2-like polarized phenotype of macrophages. […] The expression levels of the markers CD206 and CD86 on induced macrophages were determined by flow cytometry, and the mean fluorescence intensity (MFI) was analyzed with FlowJo (C), or the cells were lysed and immunoblotted to detect the indicated proteins (D). […] Data are represented as means ± SD. ^### p < 0.001 vs. non-stimulated control group, * p < 0.05, ** p < 0.01, *** p < 0.001 vs. stimulated control group. p-values were determined using one-way ANOVA.

With `COC(=O)C1=CC[C@@]23CC[C@@H]([C@@](C)(/C=C/C=C(\C)C(=O)O)OC2=O)[C@@]3(OC(C)=O)CC1` [compound 1, pseudolaric acid B] the mrna remaining at 10 µM [1] was 9.9 ± 0.8%, the activity at 10 µM [2] was 135 ± 19.5% and the cell viability (Raw264.7 cells) was “only a minimal reduction in cell viability”. The “mRNA expression levels of ARG1 and CD206” value [3] was “significantly reduced” and the “mRNA expression levels of NOS2 and MHC II” value [3] was “upregulated the mRNA expression levels of NOS2 and MHC II in a dose-dependent manner”.
